No end group written: not given here.
Assays:
Type in all cases: cell-based
[1] = system: Escherichia coli Bd4462/84, O101, K99; test: Antibacterial lethal concentration, thin agarose plates; conditions: clinical isolate pathogenic to piglets
Method: (§1) The polypetide obtained in Example 2 was tested for antibacterial activity against different bacteria, the activity being given as lethal concentrations in micro-moles per liter (μM).
(§2) The four last strains of E. coli were obtained from Olof Soderlind, SVA, Uppsala and they are clinical isolates that are pathogenic to piglets. Typing of O and K antigens are indicated after the strain number. Lethal concentration is the lowest concentration of cecropin that inhibits growth of the respective bacteria in thin agarose plates (see Hultmark, D. et al. EMCO J. 2, 571-576 (1983).

[2] = system: Pseudomonas aeruginosa, OT97; test: as above
Method: as §1, §2

[3] = system: Bacillus megaterium, Bm11; test: as above
Method: as §1, §2

[4] = system: Acinetobacter calcoaceticus, Ac11; test: as above
Method: as §1, §2

Streptococcus pyogenes = test: as above
Method: as §1, §2

Proteus vulgaris, Pv11 = test: as above
Method: as §1, §2

[5] = system: Salmonella typhimurium, LT2; test: as above
Method: as §1, §2

[6] = system: Staphylococcus aureus, Cowan 1; test: as above
Method: as §1, §2

[7] = system: Escherichia coli Bd4468/84, O64, K99; test: as above; conditions: clinical isolate pathogenic to piglets
Method: as §1, §2

[8] = system: Escherichia coli 853/67, 0149, K88; test: as above; conditions: clinical isolate pathogenic to piglets
Method: as §1, §2

[9] = system: Escherichia coli Bd2221/75, O8, K88; test: as above; conditions: clinical isolate pathogenic to piglets
Method: as §1, §2

[10] = system: Escherichia coli K12, D21; test: as above; conditions: lowest concentration that inhibits growth in thin agarose plates
Method: as §1, §2

bacteria = test: Overall comparison of antibacterial activity of the two forms; conditions: comparison of the C-terminal amide with the free-acid form (Example 3)
Method: as §1, §2

| Substance | Antibacterial activity as lethal concentration [1] [µM] | Antibacterial activity as lethal concentration [2] [µM] | Antibacterial activity as lethal concentration [3] [µM] | Antibacterial activity as lethal concentration [4] [µM] | Antibacterial activity as lethal concentration (Streptococcus pyogenes) [µM] | Antibacterial activity as lethal concentration (Proteus vulgaris, Pv11) [µM] | Antibacterial activity as lethal concentration [5] [µM] | Antibacterial activity as lethal concentration [6] [µM] | Antibacterial activity as lethal concentration [7] [µM] | Antibacterial activity as lethal concentration [8] [µM] | Antibacterial activity as lethal concentration [9] [µM] | Antibacterial activity as lethal concentration [10] [µM] | antibiotic quality, amidated form versus free acid (bacteria) |
| --- | --- | --- | --- | --- | --- | --- | --- | --- | --- | --- | --- | --- | --- |
| SWLSKTAKKLENSAKKRISEGIAIAIQGGPR [P1-OH, H2 N-Ser-Trp-Leu-Ser-Lys-Thr-Ala-Lys-Lys-Leu-Glu-Asn-Ser-Ala-Lys-Lys-Arg-Ile- Ser-Glu-Gly-Ile-Ala-Ile-Ala-Ile-Gln-Gly-Gly-Pro-Arg-COOH] | 0.8 | 13 | 5.3 | 0.5 | 44 | 12 | 1.7 | > 520 | 0.6 | 0.6 | 0.7 | 0.4 | – |
| SWLSKTAKKLENSAKKRISEGIAIAIQGGPR-NH2 [P1-NH2] | 0.7 | 5.9 | 1.8 | 0.2 | 19 | 5.7 | 0.9 | > 490 | 0.3 | 0.9 | 0.6 | 0.3 | better antibiotic |
